{
  "source": "patent US3940482A",
  "about": "“Solubilization of the zinc salt of 1-hydroxy-2-pyridinethione” (priority 1973, dated 1976)",
  "key": {"[1]": {"test": "Solubilization of zinc pyridinethione in anionic shampoo base (visual observations)", "assay_type": "physicochemical"}, "[2]": {"test": "Solubilization of zinc pyridinethione in amphoteric shampoo base (visual observations)"}, "[3]": {"test": "Solubilization of zinc pyridinethione in water by DETA, DGA, PEI-1000 (visual observations)", "assay_type": "physicochemical", "experimental": "H2 O. This 48.5 g. slurry is stirred for 1 minute. […] Also, to 0.75 g. […] H2 O. The 45.50 g. slurry is stirred for 1 minute.\n**A.E. means active ingredients."}, "[4]": {"details": "less than one part EDTA per part pyridinethione salt shows this effect; cited from earlier work"}, "[5]": {"test": "Effect of chelating/sequestering agent on biocidal activity of zinc pyridinethione", "details": "aliphatic polyamine, up to two-fold excess"}},
  "data": [
    {"smiles": "NCCOCCO", "note": "[DGA, diglycolamine]", "values": [
      {"measurement": "Visual - unadjusted", "setting": "[1]", "value": "Cloudy shampoo"},
      {"measurement": "pH - unadjusted", "setting": "[1]; anionic shampoo, 1.5% zinc pyridinethione, 3.0% solubilizer", "value": 9.0},
      {"measurement": "zinc pyridinethione soluble (visual, unadjusted pH)", "setting": "[1]; anionic shampoo, unadjusted pH", "value": "< 10", "unit": "%"},
      {"measurement": "pH - unadjusted", "setting": "[2]; 1.5% zinc pyridinethione, 3.0% solubilizer", "value": 9.6},
      {"measurement": "Solubility of zinc pyridinethione on stirring at room temperature for 3 minutes", "setting": "[3]", "value": "Less than 10%"},
      {"measurement": "Visual observation: hot plate heating until 110°F.", "setting": "[3]", "value": "No greater solubility. Zinc pyridinethione quickly settles"},
      {"measurement": "effectiveness as solubilizing agent for heavy metal salts of pyridinethione", "setting": "[3]", "value": "ineffective"},
      {"measurement": "pH of solution unadjusted", "setting": "[3]; 1.5% zinc pyridinethione, 3.0% solubilizer in water", "value": 11.2}
    ]},
    {"smiles": "O=C(O)CN(CCN(CC(=O)O)CC(=O)O)CC(=O)O", "note": "[ethylenediamine tetraacetic acid]", "values": [
      {"measurement": "effect on biocidal activity of zinc pyridinethione", "setting": "[4]", "value": "very deleterious effect"}
    ]},
    {"smiles": "NCCNCCN", "note": "[DETA, diethylene triamine]", "values": [
      {"measurement": "Visual observation at pH 9.2", "setting": "[1]; anionic shampoo, pH decreased with HCl to 9.2", "value": "slightly cloudy"},
      {"measurement": "pH down to which shampoo remains clear", "setting": "[2]; pH adjustment with HCl, smoky color at this pH", "value": "~9.3"},
      {"measurement": "effect on antimicrobial activity of zinc pyridinethione", "setting": "[5]", "value": "does not reduce the antimicrobial activity"},
      {"measurement": "pH at which solution starts clouding up", "setting": "[3]; pH adjusted downward with HCl", "value": "~9.2"},
      {"measurement": "precipitation at pH 8.8", "setting": "[3]; pH adjusted downward with HCl, pH 8.8", "value": "~50", "unit": "%"}
    ]}
  ]
}
